Source: ChEMBL document CHEMBL5678811 (Invest New Drugs, 2014)
Activity calls are given as the source filed them. The rule behind the calls is not given here.

What was measured:
[1] = tested on: T1, Receptor-type tyrosine-protein kinase FLT3 (Homo sapiens), P36888 [D835Y]; settings: Sf21, dose 200.0 nM
T1 sequence (whole entry): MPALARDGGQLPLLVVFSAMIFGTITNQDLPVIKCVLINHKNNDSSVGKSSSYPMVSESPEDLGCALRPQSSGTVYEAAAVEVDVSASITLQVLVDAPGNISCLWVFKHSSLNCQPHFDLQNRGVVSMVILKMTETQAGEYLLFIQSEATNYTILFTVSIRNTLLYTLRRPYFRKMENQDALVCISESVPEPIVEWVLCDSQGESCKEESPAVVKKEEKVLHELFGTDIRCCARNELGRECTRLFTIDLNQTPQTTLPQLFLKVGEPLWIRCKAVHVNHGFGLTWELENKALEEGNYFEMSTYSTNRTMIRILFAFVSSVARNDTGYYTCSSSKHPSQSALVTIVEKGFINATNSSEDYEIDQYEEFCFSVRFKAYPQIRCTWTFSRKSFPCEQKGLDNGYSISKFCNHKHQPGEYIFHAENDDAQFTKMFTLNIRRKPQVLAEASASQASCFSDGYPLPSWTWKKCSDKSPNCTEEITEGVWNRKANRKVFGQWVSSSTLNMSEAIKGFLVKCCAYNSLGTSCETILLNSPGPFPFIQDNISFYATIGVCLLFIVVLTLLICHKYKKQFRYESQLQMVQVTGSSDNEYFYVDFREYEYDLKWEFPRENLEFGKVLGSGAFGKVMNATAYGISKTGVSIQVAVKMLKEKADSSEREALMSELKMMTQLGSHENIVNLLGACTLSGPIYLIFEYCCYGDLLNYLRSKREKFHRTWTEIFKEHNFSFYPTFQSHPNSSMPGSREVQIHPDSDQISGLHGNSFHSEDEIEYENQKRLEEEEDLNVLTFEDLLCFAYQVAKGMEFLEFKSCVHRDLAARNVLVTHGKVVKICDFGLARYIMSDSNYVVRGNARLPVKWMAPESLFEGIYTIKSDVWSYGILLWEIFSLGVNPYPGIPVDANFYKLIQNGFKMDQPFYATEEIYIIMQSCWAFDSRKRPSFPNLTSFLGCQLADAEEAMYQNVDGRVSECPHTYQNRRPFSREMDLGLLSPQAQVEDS

[2] = tested on: COLO 205; settings: Mus musculus, CD1, dose 50.0 mg/kg, route po
[3] = Toxicity in human COLO 205 cells xenografted CD1 nu/nu mouse assessed as change in jejunum histology at 50 mg/kg, po administered daily via gavage for 2 cycles of 3 weeks on/1 week rest and measured on day 41 to 69 by histopathological analysis; type: organism-based; settings: in vivo, time 41-69 day
[4] = target: Mitogen-activated protein kinase 10 (Homo sapiens) (UniProt P53779); settings: Sf21, dose 200.0 nM
Sequence of Mitogen-activated protein kinase 10 (Homo sapiens) (P53779 whole entry): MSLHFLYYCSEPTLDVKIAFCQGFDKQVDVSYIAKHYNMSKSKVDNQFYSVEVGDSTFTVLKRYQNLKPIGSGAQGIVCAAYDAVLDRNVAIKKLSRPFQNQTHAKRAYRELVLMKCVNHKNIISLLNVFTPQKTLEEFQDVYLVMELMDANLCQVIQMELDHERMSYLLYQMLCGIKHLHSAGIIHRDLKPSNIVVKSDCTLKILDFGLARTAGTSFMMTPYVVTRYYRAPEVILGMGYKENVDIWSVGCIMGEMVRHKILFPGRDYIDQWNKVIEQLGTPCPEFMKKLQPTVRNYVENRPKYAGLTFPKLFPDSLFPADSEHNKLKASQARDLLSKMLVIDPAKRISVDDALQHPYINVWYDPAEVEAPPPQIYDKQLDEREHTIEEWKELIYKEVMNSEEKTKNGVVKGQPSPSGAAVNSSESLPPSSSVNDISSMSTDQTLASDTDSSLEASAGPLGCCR
Description: Inhibition of recombinant human N-terminal His6-tagged JNK3 expressed in baculovirus infected Sf21 insect cells relative to control

[5] = tested on: MV4-11; experiment: Cell cycle arrest in human MV4-11 cells assessed as accumulation of cells at S-phase at 2.5 uM measured after 24 hrs by propidium iodide staining based flow cytometry (reference value: 23.35%); type: functional
[6] = tested on: COLO 205; settings: Homo sapiens, dose 50.0 mg/kg, route po, time 3.0 weeks
Description: Antitumor activity against human COLO 205 cells xenografted in CD1 nu/nu mouse assessed as tumor growth inhibition at 50 mg/kg, po administered daily via gavage for 2 cycles of 3 weeks on/1 week rest

[7] = Plasma concentration at steady state in human COLO 205 cells xenografted po dosed CD1 nu/nu mouse; type: ADME, organism-based; settings: in vivo
[8] = tested on: COLO 205; settings: Homo sapiens, dose 50.0 mg/kg, route po, time > 3.0 weeks
Description: Antitumor activity against human COLO 205 cells xenografted in CD1 nu/nu mouse assessed as tumor growth inhibition at 50 mg/kg, po administered daily via gavage for 2 cycles of over 3 weeks on/1 week rest

[9] = tested on: COLO 205; settings: Mus musculus, CD1, dose 50.0 mg/kg, route po; remark: listed apart in the source
[10] = tested on: MDA-MB-231; experiment: Cell cycle arrest in human MDA-MB-231 cells assessed as accumulation of cells at S-phase at 2.5 uM measured after 24 hrs by propidium iodide staining based flow cytometry (reference value: 38.27%); type: functional
[11] = tested on: MV4-11; experiment: Cell cycle arrest in human MV4-11 cells assessed as accumulation of cells at S-phase at 1.25 uM measured after 24 hrs by propidium iodide staining based flow cytometry (reference value: 23.35%); type: functional
[12] = tested on: MDA-MB-231; experiment: Cell cycle arrest in human MDA-MB-231 cells assessed as accumulation of cells at G1-phase at 2.5 uM measured after 24 hrs by propidium iodide staining based flow cytometry (reference value: 50.27%); type: functional
[13] = Toxicity in human COLO 205 cells xenografted CD1 nu/nu mouse at 25 to 100 mg/kg, po administered once daily via gavage for 21 days; type: organism-based; settings: in vivo, dose 25-100 mg/kg, time 21 day
[14] = tested on: COLO 205; settings: Mus musculus, CD1, dose 100.0 mg/kg, route po, time 21.0 day
[15] = tested on: COLO 205; settings: Mus musculus, CD1, dose 50.0 mg/kg, route po, time lower 1.0 hrs, time upper […], TDE = time-dependent effect
[16] = tested on: COLO 205; settings: Mus musculus, CD1, dose 50.0 mg/kg, route po; remark: listed apart in the source
[17] = target: Homeodomain-interacting protein kinase 2 (Homo sapiens) (UniProt Q9H2X6); settings: Sf21, dose 200.0 nM
Sequence of Homeodomain-interacting protein kinase 2 (Homo sapiens) (Q9H2X6 whole entry, looked up): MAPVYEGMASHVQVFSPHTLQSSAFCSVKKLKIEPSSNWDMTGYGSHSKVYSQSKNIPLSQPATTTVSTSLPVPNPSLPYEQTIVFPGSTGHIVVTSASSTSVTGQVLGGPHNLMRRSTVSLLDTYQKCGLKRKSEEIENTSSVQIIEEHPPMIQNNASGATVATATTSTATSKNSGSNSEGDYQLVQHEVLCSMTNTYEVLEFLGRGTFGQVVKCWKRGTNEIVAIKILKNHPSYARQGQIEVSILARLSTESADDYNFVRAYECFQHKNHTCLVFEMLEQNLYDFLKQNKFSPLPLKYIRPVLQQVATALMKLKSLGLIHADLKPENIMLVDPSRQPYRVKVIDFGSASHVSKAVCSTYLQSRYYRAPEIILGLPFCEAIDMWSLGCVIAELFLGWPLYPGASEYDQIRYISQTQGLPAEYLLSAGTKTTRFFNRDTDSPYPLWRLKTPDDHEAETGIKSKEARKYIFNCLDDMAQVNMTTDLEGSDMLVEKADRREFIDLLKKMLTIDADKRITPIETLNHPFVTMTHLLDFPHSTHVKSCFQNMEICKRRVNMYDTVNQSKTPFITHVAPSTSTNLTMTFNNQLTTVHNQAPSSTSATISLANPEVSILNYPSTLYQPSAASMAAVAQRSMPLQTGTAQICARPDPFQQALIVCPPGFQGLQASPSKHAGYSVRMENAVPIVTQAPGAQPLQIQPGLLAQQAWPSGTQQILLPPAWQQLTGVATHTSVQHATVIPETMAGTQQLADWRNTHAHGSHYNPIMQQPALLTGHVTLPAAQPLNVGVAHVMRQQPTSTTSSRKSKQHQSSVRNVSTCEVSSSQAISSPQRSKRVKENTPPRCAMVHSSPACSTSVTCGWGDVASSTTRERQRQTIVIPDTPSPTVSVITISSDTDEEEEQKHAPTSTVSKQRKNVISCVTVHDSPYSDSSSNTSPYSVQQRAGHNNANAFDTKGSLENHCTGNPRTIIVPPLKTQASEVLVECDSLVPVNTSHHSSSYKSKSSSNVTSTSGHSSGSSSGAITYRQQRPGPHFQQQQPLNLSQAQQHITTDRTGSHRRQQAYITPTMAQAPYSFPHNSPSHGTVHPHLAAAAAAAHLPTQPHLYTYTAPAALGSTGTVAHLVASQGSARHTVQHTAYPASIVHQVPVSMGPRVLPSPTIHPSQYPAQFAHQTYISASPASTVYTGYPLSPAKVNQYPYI
Description: Inhibition of recombinant human N-terminal His6-tagged HIPK2 (165 to 564 residues) expressed in baculovirus infected Sf21 insect cells at 200 nM using MBP as substrate relative to control

[18] = tested on: MV4-11; experiment: Cell cycle arrest in human MV4-11 cells assessed as accumulation of cells at G1-phase at 0.16 uM measured after 24 hrs by propidium iodide staining based flow cytometry (reference value: 61.42%); type: functional
[19] = tested on: MV4-11; experiment: Cell cycle arrest in human MV4-11 cells assessed as accumulation of cells at G1-phase at 0.32 uM measured after 24 hrs by propidium iodide staining based flow cytometry (reference value: 61.42%); type: functional
[20] = Toxicity in human COLO 205 cells xenografted CD1 nu/nu mouse assessed as body weight loss at 50 mg/kg, po administered daily via gavage for 56 days and measured twice per week during compound dosing; type: organism-based; settings: in vivo, 1344 h, time 56 day
[21] = tested on: MDA-MB-231; experiment: Cell cycle arrest in human MDA-MB-231 cells assessed as accumulation of cells at G2/M-phase at 0.16 uM measured after 24 hrs by propidium iodide staining based flow cytometry (reference value: 11.46%); type: functional
[22] = tested on: COLO 205; settings: Mus musculus, CD1, dose 50.0 mg/kg, route po, time lower 1.0 hrs, time upper […], TDE = time-dependent effect; remark: listed apart in the source
[23] = tested on: MV4-11; experiment: Cell cycle arrest in human MV4-11 cells assessed as accumulation of cells at G2/M-phase at […] measured after 24 hrs by propidium iodide staining based flow cytometry (reference value: 15.23%); type: functional; settings: dose 0.625 µM
[24] = Toxicity in human COLO 205 cells xenografted CD1 nu/nu mouse assessed as change in ileum histology at 50 mg/kg, po administered daily via gavage for 2 cycles of 3 weeks on/1 week rest and measured on day 41 to 69 by histopathological analysis; type: organism-based; settings: in vivo, time 41-69 day
[25] = species on record: Mus musculus; settings: CD1, dose 50.0 mg/kg, route po, time 17.0 day

CCN1CCN(Cc2ccc(Nc3ncc(F)c(-c4cc(F)c5nc(C)n(C(C)C)c5c4)n3)nc2)CC1 [ABEMACICLIB]
inhibition [1]: > 90% | inhibition [2]: inactive | Activity [3]: Non-Toxic | inhibition [4]: > 90% | Activity [5]: 2.99% | TGI [6]: Active | Cpss [7]: ~ 400 nM | TGI [8]: Active | inhibition [9]: inactive | Activity [10]: 8.19% | Activity [11]: 4.18% | Activity [12]: 86.04% | Activity [13]: Non-Toxic | inhibition [14]: Active | inhibition [15]: Tde | inhibition [16]: inactive | inhibition [17]: > 90% | Activity [18]: 92.68% | Activity [19]: 95.5% | Activity [20]: Non-Toxic | Activity [21]: 4.02% | inhibition [22]: Tde | Activity [23]: 1.78% | Activity [24]: Non-Toxic | inhibition [25]: Active
